These results are taken from US20250326741A1, “GLUCOSE-DEPENDENT INSULINOTROPIC POLYPEPTIDE RECEPTOR ANTAGONISTS AND USES THEREOF” (Pfizer Inc., priority 2024, published 2025).

As usually defined, the IC50 is the midpoint of a concentration-inhibition curve. The low end stands for greater potency in that assay, the high end for weaker potency in that assay.

One assay addresses T1, human Glucose-dependent Insulinotropic Polypeptide Receptor (hGIPR) (Homo sapiens, UniProt P48546).
T1 sequence (P48546 22-466): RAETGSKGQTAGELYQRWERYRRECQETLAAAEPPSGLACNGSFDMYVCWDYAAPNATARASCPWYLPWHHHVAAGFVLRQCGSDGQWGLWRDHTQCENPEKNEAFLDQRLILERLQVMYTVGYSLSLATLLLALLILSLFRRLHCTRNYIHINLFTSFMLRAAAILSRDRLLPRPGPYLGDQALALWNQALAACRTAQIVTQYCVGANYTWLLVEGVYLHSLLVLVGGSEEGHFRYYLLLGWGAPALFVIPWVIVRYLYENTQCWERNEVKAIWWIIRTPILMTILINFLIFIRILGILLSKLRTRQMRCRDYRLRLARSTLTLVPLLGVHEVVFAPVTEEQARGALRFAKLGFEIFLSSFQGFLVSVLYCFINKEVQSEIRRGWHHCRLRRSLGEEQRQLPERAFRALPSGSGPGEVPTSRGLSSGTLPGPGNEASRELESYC
Nature of the assay: Functional in vitro GIPR antagonist potency assay (intracellular cAMP, HTRF, hGIP stimulation at EC80). In kind it is cell-based.
Settings: not given
The method, then:
Example AA. Functional In Vitro GIPR Antagonist Potency Assay
The functional in vitro antagonist potency for test compounds was determined by monitoring intracellular cyclic adenosine monophosphate (cAMP) levels in Chinese hamster ovary (CHO)—K1 cells stably expressing the human Glucose-dependent Insulinotropic Polypeptide Receptor (hGIPR). Following agonist activation, hGIPR associates with the G-protein complex causing the Gas subunit to exchange bound guanosine diphosphate (GDP) for guanosine triphosphate (GTP), followed by dissociation of the Gas-GTP complex. The activated Gas subunit can couple to downstream effectors to regulate the levels of second messengers or cAMP within the cell. Thereby, determination of intracellular cAMP levels allows for pharmacological characterization. Intracellular cAMP levels are quantitated using a homogenous assay utilizing the Homogeneous Time Resolved Fluorescence (HTRF) technology from Perkin Elmer. The method is a competitive immunoassay between native cAMP produced by the cells and cAMP labelled with the acceptor dye, d2. The two entities compete for binding to a monoclonal anti-cAMP antibody labeled with cryptate. The specific signal is inversely proportional to the concentration of cAMP in the cells.
Test compounds were solubilized to a concentration of 30 mM in 100% dimethyl sulfoxide (DMSO). An 11-point dilution series using 1 in 3.162-fold serial dilutions was created in 100% DMSO with a top concentration of 8 mM. The serially diluted compound was spotted with an Echo Acoustic liquid handler (Beckman Coulter) into a 384-well assay plate (Corning, Cat No. 3824) at 50 nL/well with duplicate points at each concentration, at a 200× final assay concentration (FAC). The final compound concentration range in the assay was 40 μM to […], with a final DMSO concentration of 0.5%.
Frozen assay-ready vials (at 1×10^7 cells/vial) of CHO-K1 cells stably expressing the Gs-coupled human GIPR receptor (Eurofins, DiscoverX, Cat No. 95-0146C2) were thawed, counted, and resuspended in assay buffer consisting of Hank's Balanced Salt Solution (HBSS, Lonza Cat No. 10-527) containing 20 mM (4-(2-hydroxyethyl)-1-piperazineethanesulfonic acid (HEPES, Lonza, Cat No. 17-737E), 0.1% bovine serum albumin (BSA, Sigma, Cat No. A7979), and 200 μM 3-isobutyl-1-methylxanthine (IBMX, Sigma, Cat No. 15879) at a density of 4×10^5 cells/mL. Cells were added to assay plate (5 μL/well of 4×10^5 cells/mL stock for 2,000 cells/well final) containing 50 nL of 200×FAC test compound, and incubated at 37° C. (95% O2: 5% CO2) for 2 hours, with micro-clime lids (Labcyte, Cat No. LLS-0310). Following the 2-hour cell and compound incubation, a stimulation mix comprised of hGIPR agonist human glucose-dependent insulinotropic polypeptide (hGIP, full length, Sigma Cat No. G2269) in assay buffer/0.1% DMSO was added to the assay plate (5 μL/well) at an estimated EC80 FAC (based on previous hGIP agonist curves) and incubated for another 30 minutes with micro-clime lids at 37° C. (95% O2: 5% CO2), after which intracellular cAMP levels were quantified as per Perkin Elmer's protocol (5 μL of d2 and then 5 μL cryptate, incubated for 1 hour at room temperature). Emission spectra of samples were measured on a Pherastar plate reader (BMG Labtech Inc) using a HTRF protocol (excitation, 320 nm; emission, 665 nm/620 nm).
(95% O2: 5% CO2), with a micro-clime lid. Following the 2-hour cell and DMSO incubation, a hGIP concentration response curve at 2×FAC (12-point curve using 1 in 3 serial dilutions, with triplicate points at each concentration, 100 nM final top concentration) in assay buffer/1% DMSO was added (5 μL/well) and incubated for a further 30 minutes with a micro-clime lid at 37° C. (95% O2: 5% CO2), after which intracellular cAMP levels were quantified and samples measured as described previously. Experiments passed quality control if the agonist concentration used for stimulation fell between the on-the-day EC50-EC90. […]
(TR-FRET usually uses a lanthanide donor and a delayed reading to cut background.)
As to `CC(C)c1ccc(NC(=O)N2CCC[C@@H]2C(=O)Nc2ccn(-c3ccc(C(=O)O)cn3)n2)cc1F` [Example 3, 6-{3-[(1-{[3-Fluoro-4-(propan-2-yl)phenyl]carbamoyl}-D-prolyl)amino]-1H-pyrazol-1-yl}pyridine-3-carboxylic Acid], inhibition was half-maximal at 20 nM (IC50).

The same assay, now with this note: geometric mean; CHO-K1 cells stably expressing human GIPR, cAMP after hGIP stimulation at EC80.
Consider `O=C(O)c1ccc(-n2ccc(NC(=O)[C@H]3CCCN3C(=O)Nc3ccc(C(F)(F)F)cc3)n2)cc1` [Example 23, 4-{3-[(1-{[4-(trifluoromethyl)phenyl]carbamoyl}-D-prolyl)amino]-1H-pyrazol-1-yl}benzoic acid], for which the IC50 was 43 nM.

`Cc1cc(-n2ccc(NC(=O)[C@H]3CCCN3C(=O)COc3ccc(C(F)(F)F)c(F)c3)n2)ccc1C(=O)O` [Example 67, 4-{3-[(1-{[3-fluoro-4-(trifluoromethyl)phenoxy]acetyl}-D-prolyl)amino]-1H-pyrazol-1-yl}-2-methylbenzoic acid] displayed an IC50 of 61 nM.

The molecule `Cc1cc(-n2ccc(NC(=O)[C@H]3CCCN3C(=O)Nc3ccc(C4CCC4)cc3)n2)ccc1C(=O)O` [Example 42, 4-[3-({1-[(4-cyclobutylphenyl)carbamoyl]-D-prolyl}amino)-1H-pyrazol-1-yl]-2-methylbenzoic acid] gave an IC50 of 12 nM.

For the molecule `CC(C)c1ccc(NC(=O)N2CCC[C@@H]2C(=O)Nc2ccn(-c3ccc(C(=O)O)cc3F)n2)cc1` [Example 24, 3-fluoro-4-{3-[(1-{[4-(propan-2-yl)phenyl]carbamoyl}-D-prolyl)amino]-1H-pyrazol-1-yl}benzoic acid], the half-maximal inhibitory concentration (IC50) amounted to 15 nM.

`Cc1cc(-n2ccc(NC(=O)[C@H]3CCCN3C(=O)COc3ccc(C(F)(F)F)cc3)n2)ccc1C(=O)O` [Example 17, 2-Methyl-4-{3-[(1-{[4-(trifluoromethyl)phenoxy]acetyl}-D-prolyl)amino]-1H-pyrazol-1-yl}benzoic Acid] came in with a 50% inhibitory concentration (IC50) of 36 nM. This IC50 lies about 2.4-fold higher than the previous one.

Turning to `CC(C)c1ccc(NC(=O)N2CCC[C@@H]2C(=O)Nc2ccn(-c3cccc(C(=O)O)c3)n2)cc1` [Example 20, 3-{3-[(1-{[4-(propan-2-yl)phenyl]carbamoyl}-D-prolyl)amino]-1H-pyrazol-1-yl}benzoic acid], the IC50 stood at 240 nM.

Take `Cc1cc(-n2ccc(NC(=O)[C@H]3CCCN3C(=O)Nc3ccc(C(F)(F)F)c(C)c3)n2)ccc1C(=O)O` [Example 38, 2-methyl-4-{3-[(1-{[3-methyl-4-(trifluoromethyl)phenyl]carbamoyl}-D-prolyl)amino]-1H-pyrazol-1-yl}benzoic acid]: the IC50 came to 28 nM.

`Cc1cc(-n2ccc(NC(=O)[C@H]3CCCN3C(=O)NCc3ccc(OC(F)(F)F)cc3)n2)ccc1C(=O)O` [Example 8, 2-Methyl-4-(3-{[1-({[4-(trifluoromethoxy)phenyl]methyl}carbamoyl)-D-prolyl]amino}-1H-pyrazol-1-yl)benzoic Acid] came in with a half-maximal inhibitory concentration (IC50) of 61 nM.

The molecule `O=C(O)c1ccc(-n2ccc(NC(=O)[C@H]3CCCN3C(=O)NCc3ccc(OC(F)(F)F)cc3)n2)cc1` [Example 33, 4-(3-{[1-{{[4-(trifluoromethoxy)phenyl]methyl}carbamoyl)-D-prolyl]amino}-1H-pyrazol-1-yl)benzoic acid] registered a 50% inhibitory concentration (IC50) of 90 nM. The IC50 values of the last two molecules are within 1.5-fold of each other.

As for `O=C(O)c1ccc(-n2ccc(NC(=O)[C@H]3CCCN3C(=O)Nc3ccc(C(F)(F)F)cc3)n2)nc1` [Example 27, 6-{3-[(1-{[4-(trifluoromethyl)phenyl]carbamoyl}-D-prolyl)amino]-1H-pyrazol-1-yl}pyridine-3-carboxylic acid], half-maximal inhibition (IC50) required 74 nM.

In turn, `Cc1cc(-n2ccc(NC(=O)[C@H]3CCCN3C(=O)Nc3ccc(C(C)C)c(C)c3)n2)ccc1C(=O)O` [Example 6, 2-Methyl-4-{3-[(1-{[3-methyl-4-(propan-2-yl)phenyl]carbamoyl}-D-prolyl)amino]-1H-pyrazol-1-yl}benzoic Acid] returned an IC50 of 4.1 nM.

The molecule `Cc1cc(-n2ccc(NC(=O)[C@H]3CCCN3C(=O)Nc3ccc(OC(F)(F)F)cc3)n2)ccc1C(N)=O` [Example 41] showed a half-inhibitory concentration (IC50) of 98 nM.

`Cc1cc(-n2ccc(NC(=O)[C@H]3CCCN3C(=O)Nc3ccc(OC(F)(F)F)cc3)n2)c(F)cc1C(=O)O` [Example 59, 5-Fluoro-2-methyl-4-{3-[(1-{[4-(trifluoromethoxy)phenyl]carbamoyl}-D-prolyl)amino]-1H-pyrazol-1-yl}benzoic Acid]: the midpoint of inhibition, the IC50, lay at 11 nM. Compared with the last molecule, the IC50 is about 8.9-fold lower.

Turning to `CC(C)c1ccc(NC(=O)N2CCC[C@@H]2C(=O)Nc2ccn(-c3ccc(CC(=O)O)cc3)n2)cc1` [Example 2, (4-{3-[(1-{[4-(Propan-2-yl)phenyl]carbamoyl}-D-prolyl)amino]-1H-pyrazol-1-yl}phenyl)acetic Acid], half-maximal inhibition (IC50) required 25 nM.

Regarding `Cc1cc(-n2ccc(NC(=O)[C@H]3CCCN3C(=O)Nc3ccc(C(C)C)cc3)n2)ccc1C(=O)O` [Example 29, 2-methyl-4-{3-[(1-{[4-(propan-2-yl)phenyl]carbamoyl}-D-prolyl)amino]-1H-pyrazol-1-yl}benzoic acid], inhibition was half-maximal at 13 nM (IC50).

`Cc1cc(-n2ccc(NC(=O)[C@H]3CCCN3C(=O)Nc3cc(F)c(C(F)(F)F)c(F)c3)n2)ccc1C(=O)O` [Example 51, 4-{3-[(1-{[3,5-difluoro-4-(trifluoromethyl)phenyl]carbamoyl}-D-prolyl)amino]-1H-pyrazol-1-yl}-2-methylbenzoic acid] yielded an IC50 of 35 nM.

Consider `C=C(C)c1ccc(NC(=O)N2CCC[C@@H]2C(=O)Nc2ccn(-c3ccc(C(=O)O)c(C)c3)n2)cc1C` [Example 58, 2-methyl-4-{3-[(1-{[3-methyl-4-(prop-1-en-2-yl)phenyl]carbamoyl}-D-prolyl)amino]-1H-pyrazol-1-yl}benzoic acid], for which half-maximal inhibition (IC50) required 8.8 nM. Compared with the last molecule, the IC50 is about 4-fold lower.

As for `Cc1cc(NC(=O)N2CCC[C@@H]2C(=O)Nc2ccn(-c3cc(F)c(O)c(F)c3)n2)ccc1C(C)C` [Example 55], 3.8 nM corresponded to half-maximal inhibition (IC50).

With `Cc1cc(-n2ccc(NC(=O)[C@H]3CCCN3C(=O)NCc3ccc(C(F)(F)F)cc3)n2)ccc1C(=O)O` [Example 40, 2-methyl-4-(3-{[1-{{[4-(trifluoromethyl)phenyl]methyl}carbamoyl)-D-prolyl]amino}-1H-pyrazol-1-yl)benzoic acid], the midpoint of inhibition, the IC50, lay at 150 nM.

`Cc1cc(NC(=O)N2CCC[C@@H]2C(=O)Nc2ccn(-c3ccc(C(=O)O)cn3)n2)ccc1C(C)C` [Example 28, 6-{3-[(1-{[3-methyl-4-(propan-2-yl)phenyl]carbamoyl}-D-prolyl)amino]-1H-pyrazol-1-yl}pyridine-3-carboxylic acid] showed an IC50 of 29 nM.

Consider `Cc1c(C(=O)O)ccc(-n2ccc(NC(=O)[C@H]3CCCN3C(=O)COc3ccc(C(F)(F)F)cc3)n2)c1F` [Example 64, 3-fluoro-2-methyl-4-{3-[(1-{[4-(trifluoromethyl)phenoxy]acetyl}-D-prolyl)amino]-1H-pyrazol-1-yl}benzoic acid], for which the 50% inhibitory concentration (IC50) was 28 nM.
